Measured values published in patent US5413915A (priority 1991, dated 1995).
Like-named read-outs stand apart in the source and are kept apart here. Marks after values point to notes of the source that are not given here.

Legend:
[1] = in vivo; cited from earlier work
[2] = tested on: Salmonella typhimurium; details: cited from earlier work
[3] = tested on: rat liver microsomes; type: biochemical; parameters: key: Positive: the development of coloration denoted a positive response; Negative: the absence of such coloration denoted a negative response
[4] = in vivo; cited from earlier work; remark: listed apart in the source
[5] = tested on: rat liver microsomes; type: biochemical; parameters: unit not given here
[6] = tested on: cytochrome P450IA1
[7] = tested on: benzo(a)pyrene-induced rat liver microsomes; experiment: Vapor exposure of detection elements in continuous flow chamber (Example 10); type: biochemical
Experimental: Detection elements of the present invention were prepared in the following manner. 13 mg PRA dissolved in 9.8 mL 0.1M TRISMOPS buffer (pH=7.4) and 3.2 mL ethanol, was bleached with 71 mg solid sodium sulfite. 0.05 mL Aliquots of the leuco-dye solution were plied to sheets of transparency film, and were air dried for one hour. […] After drying in air, the test spots were cut and mounted in 35 mm tissue culture dishes, then stored at -20° C. until ready for use. Detection elements were visually clear, with a slight flesh tone.
Vapor exposures of detection elements to the carcinogen chloromethyl methyl ether (CH3 --O--CH2 Cl) were carried out at ambient temperature,pressure, and humidity conditions in a continuous flow chamber. Air, metered at a flow rate of 1 L/min, was passed through a flask containing 2.0 mL of a rapidly stirred solution of CH3 --O--CH2 Cl in ethanol. After a glass wool plug to remove entrained liquid mists, the loaded air stream entered a 10 mm diameter tube into which the detection elements were mounted, without pre-moistening, parallel to the air flow. Flow conditions were calculated to be laminar (estimated Reynolds number=150) under these conditions. Exposure was conducted for ten minutes, after which the detection elements were removed and analyzed colorimetrically by taping to the sample beam exit slit of a double-beam spectrophotometer, and scanning the absorption spectrum versus an unexposed detection element affixed to the reference beam. At one exemplary test condition, in which the initial solution concentration of CH3 --O--CH2 Cl was 1.2M, 0.4 mL of the starting solution was recovered at the end of the exposure period. Based on both material balance and Raoult's law calculations, a single value of approximately 5200 ppm was determined for the airborne concentration of CH3 --O--CH2 Cl during the exposure. […] NADPH oxidation, equivalent to 0.4 mM or approximately 20% of the total NADPH, occurred during the 10-minute exposure, but ceased thereafter. By contrast, leuco-dye oxidation continued to intensify for some 2-4 hours, to a final level of about 0.5 mM in the detection element.
In similar experiments to FIG. 7, but in which the airborne concentration of CH3 --O--CH2 Cl was adjusted by lowering its solution concentration, color development is proportional to delivered dose, both by direct liquid administration and vapor exposure. […] For a 10-minute exposure, approximately 0.1% of the total CH3 --O--CH2 Cl in the air stream is absorbed and reacted by detection elements mounted parallel to the air flow.

[8] = Direct reaction of chemicals with the indicator leuco dye; details: without metabolic activation
[9] = tested on: rat liver microsomes; experiment: Color development in detection elements with different leuco dyes (Table 2); type: biochemical; details: applied dose 10 μmol (formaldehyde 1 μmol); for New Color Development, NBTZ: unexposed control also Black
Experimental: Solutions containing 0.5 mM of the respective dyes in 0.1 M TRIS buffer, pH=7.4 (except for nitro blue tetrazolium, 5.0 mM in 50% ethanolic TRIS, pH=7.4) were bleached with a few crystals of sodium sulfite or sodium dithionite, then plied in 0.02 mL aliquots as test spots on a clear sheet of transparency film. Spontaneous color development in air was noted (Table 2). Subsequently, a suspension of rat liver microsomes containing 1 mM NADPH and 1 mg/mL gelatin in 0.1 M TRIS-MOPS buffer (pH=7.7) was plied in 0.05 mL aliquots over the dried leuco-dye test spots. After drying, color development condition was noted, and the test spots saved for exposure tests to chemical substances (Table 2). Exposures were carried out by layering 0.01 mL of 0.1-1.0 M solutions of test chemical substances onto the test spots, and changes in color noted over time.

[10] = cited from earlier work; for E1/2: literature (Kemula and Axt); for Em7: midpoint redox potential
[11] = tested on: rat liver microsomes; experiment: Colorimetric reactions of constituents in bi-layer film (Example 1); type: biochemical; details: no microsomes, no NADPH, bottom PRA-reduced (samples 5, 6)
Experimental: In order to establish the color development behavior of various constituents employed in the invention alone and in several combinations, including two selected test chemicals, seven separate bi-layer film spots were prepared using an otherwise similar gelatin binder medium. The bottom layer of these spots contained reduced pararosaniline (PRA) in all instances except sample 7 wherein the oxidized PRA was substituted to illustrate the coloration of that constituent. An ascorbate salt was selected as typical of a benign test chemical, while benzo(a)pyrene was selected as a representative known carcinogen. The color behavior of the various samples was observed and identified in the following Table 3 together with the compositions of the samples tested.

[12] = 10-minute vapor exposure, approximately 5200 ppm

Row | Compound | Carcinogenic Status [1] | Tumorigen Activity [1] | Mutagenicity [2] | Invention Response [3] | Teratogen Activity [4] | Detector Response, threshold dose [5] | other results
1 | CC(=O)O [Acetate] | Negative | - | - | Negative | - |  | 
2 | Nc1ccccc1 [Aniline] | Possible | +^e | + | Positive | - | 5 | 
3 | [Cd+2] [Cd(II)] |  |  | + |  | + |  | Tumorigen Activity, assignment based on IARC reports [1]: +; Dose-response shift, BNF-induced detection elements versus uninduced controls ([6]; compared with the shift seen for hydrazine): less significantly
4 | COCCl [Chloromethyl methyl ether] |  | + | + |  | + | 0.1 | NADPH oxidation in detection element [7, 12]: 0.4 mM; NADPH oxidation, share of the total NADPH [7, 12]: approximately 20%; Time over which leuco-dye oxidation continued to intensify ([7]; after 10-minute exposure): 2 to 4 h; Leuco-dye oxidation, final level in the detection element ([7]; after 10-minute exposure, approximately 5200 ppm): about 0.5 mM
5 | CN(C)C(=O)Nc1ccc(Cl)c(Cl)c1 [DCMU, 3(3,4-Dichlorophenyl)-1,1,dimethylurea] | Teratogen only | +^e |  | Positive | + |  | 
6 | C=O [Formaldehyde] | Probable | + | - | Positive | + | 0.01 | Direct reaction with the indicator leuco dye [8]: react directly with the indicator dye; Mutagenicity, direct-acting mutagen [2]: +; New Color Development, Methyl Violet leuco dye [9]: Violet; New Color Development, Naphthol Blue-Black leuco dye [9]: None; New Color Development, Nile Blue A leuco dye [9]: Blue; New Color Development, Safranin O leuco dye [9]: None; New Color Development, NBTZ [9]: Black
7 | OO [H2 O2] |  |  | + |  | - | 1-2 | Direct reaction with the indicator leuco dye [8]: react directly with the indicator dye; Tumorigen Activity, assignment based on IARC reports [1]: +
8 | O=C(O)CI [ICH2 COOH, iodoacetic acid] |  |  |  |  |  |  | Direct reaction with the indicator leuco dye [8]: react with the leuco dye to give colored products; Direct reaction with the indicator leuco dye ([8]; listed as iodoacetate): react directly with the indicator dye; New Color Development, Methyl Green leuco dye [9]: Green; New Color Development, Methyl Violet leuco dye [9]: Purple; New Color Development, Naphthol Blue-Black leuco dye [9]: None; New Color Development, Safranin O leuco dye [9]: None; New Color Development, NBTZ [9]: Black
9 | CC1=CC(=O)c2ccccc2C1=O [Menadione] | Possible | +^e | + | Positive | + | 0.01 | New Color Development, Methyl Green leuco dye [9]: None; New Color Development, Methyl Violet leuco dye [9]: None^a,b; New Color Development, Naphthol Blue-Black leuco dye [9]: None^b; New Color Development, Nile Blue A leuco dye [9]: None^b; New Color Development, Safranin O leuco dye [9]: None; New Color Development, NBTZ [9]: Black
10 | CN(C)c1ccc(C(=C2C=CC(=[N+](C)C)C=C2)c2ccc([N+](C)(C)C)cc2)cc1.[Cl-].[Cl-] [Methyl Green, methyl green] |  |  |  |  |  |  | E1/2 [10]: approximately -0.55 V
11 | CN(C)c1ccc2nc3ccc(=[N+](C)C)cc-3sc2c1 [Methylene Blue (USP), Methylene Blue] |  | - | + |  | - |  | Em7 [10]: +0.01 V
12 | Oc1ccccc1 [Phenol] | Possible | - |  | Positive | - | 0.02 | Dose-response shift, BNF-induced detection elements versus uninduced controls [6]: less significantly
13 | Cc1cc2nc3cc(C)c(N)cc3[n+](-c3ccccc3)c2cc1N.[Cl-] [Safranin O] |  |  |  |  |  |  | Em7 [10]: -0.28 V
14 | ClC=C(Cl)Cl [Trichloroethylene] |  | + | + |  | + | 150 | Dose-response shift, BNF-induced detection elements versus uninduced controls [6]: less significantly
15 | O=C1O[C@H]([C@@H](O)CO)C(O)=C1O [free ascorbic acid, ascorbic acid] |  |  |  |  |  |  | COLOR REACTION [11]: color reaction occurs
16 | CN(C)c1ccc(C(=C2C=CC(=[N+](C)C)C=C2)c2ccccc2)cc1 [malachite green] |  |  |  |  |  |  | E1/2 [10]: -0.55 V
17 | O=S([O-])S(=O)[O-].[Na+].[Na+] [sodium dithionite] |  |  |  |  |  |  | Em7 [10]: < -0.5 V
18 | Nile Blue A |  |  |  |  |  |  | Em7 [10]: -0.12 V
19 | dichromate |  |  |  |  |  |  | Direct reaction with the indicator leuco dye [8]: react directly with the indicator dye
20 | methyl violet |  |  |  |  |  |  | E1/2 [10]: approximately -0.75 V
